Experimental data as given in US20070259895A1, “MGluR5 modulators VI” (AstraZeneca AB, priority 2006, published 2007).

Legend:
[1] = target: T1, human mGluR5d (Homo sapiens, UniProt P41594); test: FLIPR assay, mobilization of intracellular calcium in cells expressing mGluR5d; format: cell-based
T1 construct: expressed in transfected cells; The IP3 assay uses GHEK cells stably expressing human mGluR5d
Description: The properties of the compounds of the invention can be analyzed using standard assays for pharmacological activity. Examples of glutamate receptor assays are well known in the art as described in for example Aramori et al, Neuron 8:757 (1992), Tanabe et al., Neuron 8:169 (1992), Miller et al., J. Neuroscience 15: 6103 (1995), Balazs, et al., J. Neurochemistry 69:151 (1997). The methodology described in these publications is incorporated herein by reference. Conveniently, the compounds of the invention can be studied by means of an assay (FLIPR) that measures the mobilization of intracellular calcium, [Ca^2+]i in cells expressing mGluR5 or another assay (IP3) that measures inositol phosphate turnover.
Cells expressing human mGluR5d as described in WO97/05252 are seeded at a density of 100,000 cells per well on collagen coated clear bottom 96-well plates with black sides and experiments are done 24 h following seeding. […] The fluorescence signal is sampled 50 times at 1 second intervals followed by 3 samples at 5 second intervals immediately after each of the two additions. Responses are measured as the difference between the peak height of the response to agonist, less the background fluorescence within the sample period. […]

[2] = Determination of brain to plasma ratio in rat; format: in vivo, female Sprague Dawley rats; conditions: female, Sprague-Dawley, brain and plasma, read-out: Brain to Plasma Ratio of compound in Rat
Protocol: Brain to plasma ratios are estimated in female Sprague Dawley rats. The compound is dissolved in water or another appropriate vehicle. For determination of brain to plasma ratio the compound is administrated as a subcutaneous, or an intravenous bolus injection, or an intravenous infusion, or an oral administration. At a predetermined time point after the administration a blood sample is taken with cardiac puncture. The rat is terminated by cutting the heart open, and the brain is immediately retained. The blood samples are collected in heparinized tubes and centrifuged within 30 minutes, in order to separate the plasma from the blood cells. The plasma is transferred to 96-well plates and stored at −20° C. until analysis. The brains are divided in half, and each half is placed in a pre-tarred tube and stored at −20° C. until analysis. Prior to the analysis, the brain samples are thawed and 3 ml/g brain tissue of distilled water is added to the tubes. The brain samples are sonicated in an ice bath until the samples are homogenized. Both brain and plasma samples are precipitated with acetonitrile. After centrifugation, the supernatant is diluted with 0.2% formic acid. […] After reconstitution of the residuals the samples are ready for injection onto the HPLC column.

T1 sequence (P41594 21-942 isoform P41594-3 limits assumed): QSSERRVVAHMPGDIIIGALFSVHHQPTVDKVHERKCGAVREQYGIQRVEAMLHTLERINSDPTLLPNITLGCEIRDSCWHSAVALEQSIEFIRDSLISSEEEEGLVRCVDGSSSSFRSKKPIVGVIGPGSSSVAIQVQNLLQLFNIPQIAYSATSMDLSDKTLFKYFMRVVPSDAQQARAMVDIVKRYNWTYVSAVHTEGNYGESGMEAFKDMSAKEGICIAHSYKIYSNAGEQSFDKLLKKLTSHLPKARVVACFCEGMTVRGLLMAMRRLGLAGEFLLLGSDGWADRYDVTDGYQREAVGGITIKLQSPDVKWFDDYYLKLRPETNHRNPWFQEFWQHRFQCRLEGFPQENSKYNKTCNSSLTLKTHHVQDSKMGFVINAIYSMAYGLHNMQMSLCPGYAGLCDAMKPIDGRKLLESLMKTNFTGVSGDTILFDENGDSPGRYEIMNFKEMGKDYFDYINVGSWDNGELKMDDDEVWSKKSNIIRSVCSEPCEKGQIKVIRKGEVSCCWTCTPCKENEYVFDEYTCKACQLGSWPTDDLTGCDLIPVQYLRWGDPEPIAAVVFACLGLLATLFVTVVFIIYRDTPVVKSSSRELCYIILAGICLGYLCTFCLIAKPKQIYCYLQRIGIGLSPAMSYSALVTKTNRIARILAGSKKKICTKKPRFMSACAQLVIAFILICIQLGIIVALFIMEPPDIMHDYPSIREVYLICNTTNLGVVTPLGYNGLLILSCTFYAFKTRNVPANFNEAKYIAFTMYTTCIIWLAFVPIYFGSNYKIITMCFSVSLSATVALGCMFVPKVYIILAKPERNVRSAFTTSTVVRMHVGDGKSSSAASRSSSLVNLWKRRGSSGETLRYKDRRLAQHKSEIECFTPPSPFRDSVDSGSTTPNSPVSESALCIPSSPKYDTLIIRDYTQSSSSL

- IC50 [1]: 51 nM
- Kp [2]: 0.36
Compound: COc1cc(-c2nnc3n2CCCN3Cc2cc(-c3cccc(Cl)c3)on2)ccn1 [Example 11.2, 8-{[5-(3-Chlorophenyl)isoxazol-3-yl]methyl}-3-(2-methoxypyridin-4-yl)-5,6,7,8-tetrahydro[1,2,4]triazolo[4,3-a]pyrimidine]
